The results in this text go back to patent publication US20260297081A1, “COMPOUNDS AND METHODS OF TREATING CANCERS” (Cullgen Inc., priority 2023, published 2026).

Where only a bound is given, the exact number is not on record here.

The assay relates to Calu-1 cells. In words: Anti-proliferation (viability) of NSCLC Calu-1 cells, 3 days (Table 7, FIG. 2B). In kind it is cell-based. The conditions noted are these: Homo sapiens, 72 h; Calu-1 cells, 3 days, 10-point serial dilution; read-out: GI IC50 in Calu-1. Here is the method: To evaluate anti-proliferation activities of heterobifunctional compounds, NSCLC Calu-1 or ER+ breast cancer T47D cells were treated with selected heterobifunctional compounds following a 10-point serial dilution for 3 or 6 days, respectively.
To verify that heterobifunctional compound-mediated degradation is dependent on the binding to CDK4-cyclin D complex, a negative control compound, CPD-143, which is derived from active heterobifunctional compound CPD-10 was designed. CPD-143 bears the same DDB1 ligand and linker as CPD-10 but with a modified warhead to impair the binding of the control compound to CDK4.

On to `CC(=O)c1c(C)c2cnc(Nc3ccc(N4CC5(CC(N(C)CC(=O)N6CCC(Nc7nc(NC(C)C)ccc7C(=O)Nc7ccc(N(C)C)nn7)CC6)C5)C4)cn3)nc2n(C2CCCC2)c1=O` [CPD-484, 2-((1-(N-(2-(6-((6-acetyl-8-cyclopentyl-5-methyl-7-oxo-7,8-dihydropyrido[2,3-d]pyrimidin-2-yl)amino)pyridin-3-yl)-2-azaspiro[3.3]heptan-6-yl)-N-methylglycyl)piperidin-4-yl)amino)-N-(6-(dimethylamino)pyridazin-3-yl)-6-(isopropylamino)nicotinamide], for which the IC50 (as a rule, the concentration needed to halve the response being measured) was in the range of 0.01 to 0.05 µM.

As to `CC(=O)c1c(C)c2cnc(Nc3ccc(CN4CCN(CC(=O)NCC56CC(Nc7nc(NC(C)C)ccc7C(=O)Nc7ccc(N(C)C)nn7)(C5)C6)CC4)cn3)nc2n(C2CCCC2)c1=O` [CPD-479, 2-((3-((2-(4-((6-((6-acetyl-8-cyclopentyl-5-methyl-7-oxo-7,8-dihydropyrido[2,3-d]pyrimidin-2-yl)amino)pyridin-3-yl)methyl)piperazin-1-yl)acetamido)methyl)bicyclo[1.1.1]pentan-1-yl)amino)-N-(6-(dimethylamino)pyridazin-3-yl)-6-(isopropylamino)nicotinamide], the IC50 is at most 0.01 µM.

In the case of `[2H]C([2H])([2H])Nc1ccc(C(=O)Nc2cc3n(n2)CCC3)c(NC2CC3(C2)CN(C(=O)CC(N2CCN(c4ccc(Nc5ncc6c(C)c(C(C)=O)c(=O)n(C7CCCC7)c6n5)nc4)CC2)C(F)(F)F)C3)n1` (stereo not drawn) [CPD-524, 2-((2-(3-(4-(6-((6-acetyl-8-cyclopentyl-5-methyl-7-oxo-7,8-dihydropyrido[2,3-d]pyrimidin-2-yl)amino)pyridin-3-yl)piperazin-1-yl)-4,4,4-trifluorobutanoyl)-2-azaspiro[3.3]heptan-6-yl)amino)-N-(5,6-dihydro-4H-pyrrolo[1,2-b]pyrazol-2-yl)-6-((methyl-d3)amino)nicotinamide], the IC50 is at most 0.01 µM.

Take `[2H]C([2H])([2H])Nc1ccc(C(=O)Nc2ccc(N(C)C)nn2)c(NC2CC(NC(=O)N3CCC(N4CCN(c5ccc(Nc6ncc7c(C)c(C(C)=O)c(=O)n(C8CCCC8)c7n6)nc5)CC4)C3)C2)n1` (stereo not drawn) [CPD-494, 2-((3-(3-(4-(6-((6-acetyl-8-cyclopentyl-5-methyl-7-oxo-7,8-dihydropyrido[2,3-d]pyrimidin-2-yl)amino)pyridin-3-yl)piperazin-1-yl)pyrrolidine-1-carboxamido)cyclobutyl)amino)-N-(6-(dimethylamino)pyridazin-3-yl)-6-((methyl-d3)amino)nicotinamide]: the IC50 is at least 0.05 µM.

Regarding `CC(=O)c1c(C)c2cnc(Nc3ccc(CN4CCN(CC(=O)NC56CC(Nc7nc(NC(C)C)ccc7C(=O)Nc7ccc(N(C)C)nn7)(C5)C6)CC4)cn3)nc2n(C2CCCC2)c1=O` [CPD-502, 2-((3-(2-(4-((6-((6-acetyl-8-cyclopentyl-5-methyl-7-oxo-7,8-dihydropyrido[2,3-d]pyrimidin-2-yl)amino)pyridin-3-yl)methyl)piperazin-1-yl)acetamido)bicyclo[1.1.1]pentan-1-yl)amino)-N-(6-(dimethylamino)pyridazin-3-yl)-6-(isopropylamino)nicotinamide], the IC50 was 0.01 to 0.05 µM.

In the case of `CC(=O)c1c(C)c2cnc(Nc3ccc(N4CCC5(CCN(CC(=O)NC67CC(Nc8nc(NC(C)C)ccc8C(=O)Nc8ccc(N(C)C)nn8)(C6)C7)C5)C4)cn3)nc2n(C2CCCC2)c1=O` (stereo not drawn) [CPD-496, 2-((3-(2-(7-(6-((6-acetyl-8-cyclopentyl-5-methyl-7-oxo-7,8-dihydropyrido[2,3-d]pyrimidin-2-yl)amino)pyridin-3-yl)-2,7-diazaspiro[4.4]nonan-2-yl)acetamido)bicyclo[1.1.1]pentan-1-yl)amino)-N-(6-(dimethylamino)pyridazin-3-yl)-6-(isopropylamino)nicotinamide], the half-inhibitory concentration (IC50) is at most 0.01 µM.

With `CC(=O)c1c(C)c2cnc(Nc3ccc(CN4CCN(C5CCN(C(=O)C6CCC(Nc7nc(NC(C)C)ccc7C(=O)Nc7ccc(N(C)C)nn7)C6)C5)CC4)cn3)nc2n(C2CCCC2)c1=O` (stereo not drawn) [CPD-511, 2-((3-(3-(4-((6-((6-acetyl-8-cyclopentyl-5-methyl-7-oxo-7,8-dihydropyrido[2,3-d]pyrimidin-2-yl)amino)pyridin-3-yl)methyl)piperazin-1-yl)pyrrolidine-1-carbonyl)cyclopentyl)amino)-N-(6-(dimethylamino)pyridazin-3-yl)-6-(isopropylamino)nicotinamide], the IC50 is at least 0.05 µM.

As for `CC(=O)c1c(C)c2cnc(Nc3ccc(N4CCC5(CCN(CC(=O)NCC67CC(Nc8nc(NC(C)C)ccc8C(=O)Nc8ccc(N(C)C)nn8)(C6)C7)C5)C4)cn3)nc2n(C2CCCC2)c1=O` (stereo not drawn) [CPD-485, 2-((3-((2-(7-(6-((6-acetyl-8-cyclopentyl-5-methyl-7-oxo-7,8-dihydropyrido[2,3-d]pyrimidin-2-yl)amino)pyridin-3-yl)-2,7-diazaspiro[4.4]nonan-2-yl)acetamido)methyl)bicyclo[1.1.1]pentan-1-yl)amino)-N-(6-(dimethylamino)pyridazin-3-yl)-6-(isopropylamino)nicotinamide], the IC50 was at most 0.01 µM.

On to `CC(=O)c1c(C)c2cnc(Nc3ccc(CN4CC5(C4)CN(C(=O)CN4CCC(Nc6nc(NC(C)C)ccc6C(=O)Nc6ccc(N(C)C)nn6)CC4)C5)cn3)nc2n(C2CCCC2)c1=O` [CPD-498, 2-((1-(2-(6-((6-((6-acetyl-8-cyclopentyl-5-methyl-7-oxo-7,8-dihydropyrido[2,3-d]pyrimidin-2-yl)amino)pyridin-3-yl)methyl)-2,6-diazaspiro[3.3]heptan-2-yl)-2-oxoethyl)piperidin-4-yl)amino)-N-(6-(dimethylamino)pyridazin-3-yl)-6-(isopropylamino)nicotinamide], for which the IC50 is at least 0.05 µM.

With `CC(=O)c1c(C)c2cnc(Nc3ccc(N4CCC(N(C)C(=O)CN5CC(Nc6nc(NC(C)C)ccc6C(=O)Nc6ccc(N(C)C)nn6)C5)CC4)cn3)nc2n(C2CCCC2)c1=O` [CPD-517, 2-((1-(2-((1-(6-((6-acetyl-8-cyclopentyl-5-methyl-7-oxo-7,8-dihydropyrido[2,3-d]pyrimidin-2-yl)amino)pyridin-3-yl)piperidin-4-yl)(methyl)amino)-2-oxoethyl)azetidin-3-yl)amino)-N-(6-(dimethylamino)pyridazin-3-yl)-6-(isopropylamino)nicotinamide], the IC50 is at least 0.05 µM.

Turning to `[2H]C([2H])([2H])Nc1ccc(C(=O)Nc2ccc(N(C)C)nn2)c(NC2CC3(C2)CN(CC(=O)N2CCC4(CCN(Cc5ccc(Nc6ncc7c(C)c(C(C)=O)c(=O)n(C8CCCC8)c7n6)nc5)C4)C2)C3)n1` (stereo not drawn) [CPD-507, 2-((2-(2-(7-((6-((6-acetyl-8-cyclopentyl-5-methyl-7-oxo-7,8-dihydropyrido[2,3-d]pyrimidin-2-yl)amino)pyridin-3-yl)methyl)-2,7-diazaspiro[4.4]nonan-2-yl)-2-oxoethyl)-2-azaspiro[3.3]heptan-6-yl)amino)-N-(6-(dimethylamino)pyridazin-3-yl)-6-((methyl-d3)amino)nicotinamide], the IC50 is at least 0.05 µM.

As for `CC(=O)c1c(C)c2cnc(Nc3ccc(N4CCN(CC(=O)NC5CC6(C5)CC(Nc5nc(NC(C)C)ccc5C(=O)Nc5cc(C)n(C(F)(F)F)n5)C6)CC4)cn3)nc2n(C2CCCC2)c1=O` (stereo not drawn) [CPD-514, 2-((6-(2-(4-(6-((6-acetyl-8-cyclopentyl-5-methyl-7-oxo-7,8-dihydropyrido[2,3-d]pyrimidin-2-yl)amino)pyridin-3-yl)piperazin-1-yl)acetamido)spiro[3.3]heptan-2-yl)amino)-6-(isopropylamino)-N-(5-methyl-1-(trifluoromethyl)-1H-pyrazol-3-yl)nicotinamide], the IC50 is at least 0.05 µM.

With `CC(=O)c1c(C)c2cnc(Nc3ccc(N4CCN(C5CCN(C(=O)C6(C)CCC(Nc7nc(NC(C)C)ccc7C(=O)Nc7ccc(N(C)C)nn7)CC6)C5)CC4)cn3)nc2n(C2CCCC2)c1=O` (stereo not drawn) [CPD-516, 2-((4-(3-(4-(6-((6-acetyl-8-cyclopentyl-5-methyl-7-oxo-7,8-dihydropyrido[2,3-d]pyrimidin-2-yl)amino)pyridin-3-yl)piperazin-1-yl)pyrrolidine-1-carbonyl)-4-methylcyclohexyl)amino)-N-(6-(dimethylamino)pyridazin-3-yl)-6-(isopropylamino)nicotinamide], the concentration for half-maximal inhibition (IC50) is 0.01 to 0.05 µM.

For `CC(=O)c1c(C)c2cnc(Nc3ccc(CN4CC5(C4)CN(C(=O)CN4CC6(CC(Nc7nc(NC(C)C)ccc7C(=O)Nc7ccc(N(C)C)nn7)C6)C4)C5)cn3)nc2n(C2CCCC2)c1=O` [CPD-497, 2-((2-(2-(6-((6-((6-acetyl-8-cyclopentyl-5-methyl-7-oxo-7,8-dihydropyrido[2,3-d]pyrimidin-2-yl)amino)pyridin-3-yl)methyl)-2,6-diazaspiro[3.3]heptan-2-yl)-2-oxoethyl)-2-azaspiro[3.3]heptan-6-yl)amino)-N-(6-(dimethylamino)pyridazin-3-yl)-6-(isopropylamino) nicotinamide], the 50% inhibitory concentration (IC50) was at least 0.05 µM.

For `[2H]C([2H])([2H])Nc1ccc(C(=O)Nc2cccc(OC)n2)c(N[C@H]2CC[C@H](C(=O)N3CCC(N4CCN(c5ccc(Nc6ncc7c(C)c(C(C)=O)c(=O)n(C8CCCC8)c7n6)nc5)CC4)C3)CC2)n1` (stereo partly drawn) [CPD-523, 2-((trans-4-(3-(4-(6-((6-acetyl-8-cyclopentyl-5-methyl-7-oxo-7,8-dihydropyrido[2,3-d]pyrimidin-2-yl)amino)pyridin-3-yl)piperazin-1-yl)pyrrolidine-1-carbonyl)cyclohexyl)amino)-N-(6-methoxypyridin-2-yl)-6-((methyl-d3)amino)nicotinamide], the IC50 was at least 0.05 µM.
